In patent publication US11964990B2, “1,3,4,7-tetrahydro-2H-pyrrolo[3′,2′:5,6]pyrido[2,3-b][1,4]oxazepine bcl-2 inhibitors” (AbbVie Inc., priority 2022, dated 2024):

Legend:
RS4;11 cells = experiment: Cell viability assay (CellTiter-Glo) in RS4;11 cell line; assay type: cell-based; settings: 24 hours, 10% Human Serum, 50% decrease in cell viability
Source text: (§1) The acute lymphoblastic leukemia (ALL) human cell line RS4;11 (ATCC, Manassas VA) was used as the primary human cell line to assess the cellular activity of compound of the present Examples in vitro and their efficacy in vivo. BH3 profiling, a mitochondrial assay that classifies blocks in the intrinsic apoptotic pathway, has shown that RS4;11 cells were highly dependent on Bcl-2 protein for survival and were sensitive to a Bcl-2 inhibitor (Blood. 2008; 111(4):2300-2309). […] The acute lymphoblastic leukemia cell line Molt-4, which is derived from immature T-lymphoid cells (T-ALL), was used as a counter screen assay.
(§2) Frozen RS4;11 or Molt-4 cells (ATCC, Manassas, VA, USA) were thawed overnight in RPMI 1640 media (Thermo Fisher Scientific, Waltham, MA, USA) supplemented with 1% penicillin/streptomycin (Thermo Fisher Scientific, Waltham, MA, USA), and 10% Human Serum (Sigma, St. Louis, MO, USA). 3000 Cells (0.1×10^6/mL) were seeded in each well of 384-well plate and were treated for 24 hours in a humidified chamber with 5% CO2. Cell viability was determined by CellTiter-Glo as described by the manufacturer's instructions (Promega Corporation, Madison, WI, USA). Responses were determined as a percentage of the control treated cells and the effective concentration (EC50) to induce a 50% decrease in cell viability were determined from sigmoidal dose-response curves using Dotmatics (Dotmatics Software Company, Bishops Stortford, Hertfordshire, England).

Molt-4 cells = experiment: Cell viability counter screen assay (CellTiter-Glo) in Molt-4 cells; assay type: cell-based; settings: 24 hours, 10% Human Serum, 50% decrease in cell viability
Source text: as §1, §2

SMILES	EC50 (RS4;11 cells) [nM]	EC50 (Molt-4 cells) [nM]
CC1(C)CC(c2ccc(Cl)cc2)=C2CN3CCN(c4ccc(C(=O)NS(=O)(=O)c5ccc(NCC6CCOCC6)c([N+](=O)[O-])c5)c(N5CCCOc6nc7[nH]ccc7cc65)c4)C[C@H]3COCCCO[C@@H]2C1 [Example 1, 4-((4aS,10aR)-14-(4-chlorophenyl)-12,12-dimethyl-1,2,4a,5,8,9,10a,11,13,15-decahydro-7H,12H-benzo[f]pyrazino[2,1-c][1,8]dioxa[4]azacycloundecin-3(4H)-yl)-2-(3,4-dihydro-2H-pyrrolo[3′,2′:5,6]pyrido[2,3-b][1,4]oxazepin-1(7H)-yl)-N-((3-nitro-4-(((tetrahydro-2H-pyran-4-yl)methyl)amino)phenyl)sulfonyl)benzamide]	4.01	> 10000
CC1(C)CC(c2ccc(Cl)cc2)=C2CN3CCN(c4ccc(C(=O)NS(=O)(=O)c5ccc(NC[C@H]6CC[C@](C)(O)CO6)c([N+](=O)[O-])c5)c(N5CCCOc6nc7[nH]ccc7cc65)c4)C[C@H]3COCCCO[C@@H]2C1 [Example 2, 4-((4aS,10aR)-14-(4-chlorophenyl)-12,12-dimethyl-1,2,4a,5,8,9,10a,11,13,15-decahydro-7H,12H-benzo[f]pyrazino[2,1-c][1,8]dioxa[4]azacycloundecin-3(4H)-yl)-2-(3,4-dihydro-2H-pyrrolo[3′,2′:5,6]pyrido[2,3-h][1,4]oxazepin-1(7H)-yl)-N-((4-((((2R,5S)-5-hydroxy-5-methyltetrahydro-2H-pyran-2-yl)methyl)amino)-3-nitrophenyl)sulfonyl)benzamide]	0.651	1220
CC1(C)CC(c2ccc(Cl)cc2)=C2CN3CCN(c4ccc(C(=O)NS(=O)(=O)c5ccc(NC[C@H]6COCCO6)c([N+](=O)[O-])c5)c(N5CCCOc6nc7[nH]ccc7cc65)c4)C[C@H]3COCCCO[C@@H]2C1 [Example 3, N-((4-((((S)-1,4-dioxan-2-yl)methyl)amino)-3-nitrophenyl)sulfonyl)-4-((4aS,10aR)-14-(4-chlorophenyl)-12,12-dimethyl-1,2,4a,5,8,9,10a,11,13,15-decahydro-7H,12H-benzo[f]pyrazino[2,1-c][1,8]dioxa[4]azacycloundecin-3(4H)-yl)-2-(3,4-dihydro-2H-pyrrolo[3′,2′:5,6]pyrido[2,3-b][1,4]oxazepin-1(7H)-yl)benzamide]	1.36	1410
CC1(C)CC(c2ccc(Cl)cc2)=C2CN3CCN(c4ccc(C(=O)NS(=O)(=O)c5cnc(OCC6(F)CCN(C7COC7)CC6)c(Cl)c5)c(N5CCCOc6nc7[nH]ccc7cc65)c4)C[C@H]3COCCCO[C@@H]2C1 [Example 4, N-((5-chloro-6-((4-fluoro-1-(oxetan-3-yl)piperidin-4-yl)methoxy)pyridin-3-yl)sulfonyl)-4-((4aS,10aR)-14-(4-chlorophenyl)-12,12-dimethyl-1,2,4a,5,8,9,10a,11,13,15-decahydro-7H,12H-benzo[f]pyrazino[2,1-c][1,8]dioxa[4]azacycloundecin-3(4H)-yl)-2-(3,4-dihydro-2H-pyrrolo[3′,2′:5,6]pyrido[2,3-b][1,4]oxazepin-1(7H)-yl)benzamide]	2.35	2000
CO[C@H]1CC[C@H](CNc2ccc(S(=O)(=O)NC(=O)c3ccc(N4CCN5CC6=C(c7ccc(Cl)cc7)CC(C)(C)C[C@H]6OCCCOC[C@@H]5C4)cc3N3CCCOc4nc5[nH]ccc5cc43)cc2[N+](=O)[O-])CC1 [Example 5, 4-((4aS,10aR)-14-(4-chlorophenyl)-12,12-dimethyl-1,2,4a,5,8,9,10a,11,13,15-decahydro-7H,12H-benzo[f]pyrazino[2,1-c][1,8]dioxa[4]azacycloundecin-3(4H)-yl)-2-(3,4-dihydro-2H-pyrrolo[3′,2′:5,6]pyrido[2,3-b][1,4]oxazepin-1(7H)-yl)-N-((4-((((1r,4r)-4-methoxycyclohexyl)methyl)amino)-3-nitrophenyl)sulfonyl)benzamide]	7.11	4460
C[C@@H]1CO[C@@H](CNc2ccc(S(=O)(=O)NC(=O)c3ccc(N4CCN5CC6=C(c7ccc(Cl)cc7)CC(C)(C)C[C@H]6OCCCOC[C@@H]5C4)cc3N3CCCOc4nc5[nH]ccc5cc43)cc2[N+](=O)[O-])CO1 [Example 6, 4-((4aS,10aR)-14-(4-chlorophenyl)-12,12-dimethyl-1,2,4a,5,8,9,10a,11,13,15-decahydro-7H,12H-benzo[f]pyrazino[2,1-c][1,8]dioxa[4]azacycloundecin-3(4H)-yl)-2-(3,4-dihydro-2H-pyrrolo[3′,2′:5,6]pyrido[2,3-b][1,4]oxazepin-1(7H)-yl)-N-((4-((((2S,5R)-5-methyl-1,4-dioxan-2-yl)methyl)amino)-3-nitrophenyl)sulfonyl)benzamide]	1.55	1910
CC1(C)CC(c2ccc(Cl)cc2)=C2CN3CCN(c4ccc(C(=O)NS(=O)(=O)c5cnc(OCC6(F)CCOCC6)c(Cl)c5)c(N5CCCOc6nc7[nH]ccc7cc65)c4)C[C@H]3COCCCO[C@@H]2C1 [Example 7, N-((5-chloro-6-((4-fluorotetrahydro-2H-pyran-4-yl)methoxy)pyridin-3-yl)sulfonyl)-4-((4aS,10aR)-14-(4-chlorophenyl)-12,12-dimethyl-1,2,4a,5,8,9,10a,11,13,15-decahydro-7H,12H-benzo[f]pyrazino[2,1-c][1,8]dioxa[4]azacycloundecin-3(4H)-yl)-2-(3,4-dihydro-2H-pyrrolo[3′,2′:5,6]pyrido[2,3-b][1,4]oxazepin-1(7H)-yl)benzamide]	5.46	> 10000
CC1(C)CC(c2ccc(Cl)cc2)=C2CN3CCN(c4ccc(C(=O)NS(=O)(=O)c5ccc(NC[C@H]6CC[C@H](O)CO6)c([N+](=O)[O-])c5)c(N5CCCOc6nc7[nH]ccc7cc65)c4)C[C@H]3COCCCO[C@@H]2C1 [Example 12, 4-((4aS,10aR)-14-(4-chlorophenyl)-12,12-dimethyl-1,2,4a,5,8,9,10a,11,13,15-decahydro-7H,12H-benzo[f]pyrazino[2,1-c][1,8]dioxa[4]azacycloundecin-3(4H)-yl)-2-(3,4-dihydro-2H-pyrrolo[3′,2′:5,6]pyrido[2,3-b][1,4]oxazepin-1(7H)-yl)-N-((4-((((2R,5S)-5-hydroxytetrahydro-2H-pyran-2-yl)methyl)amino)-3-nitrophenyl)sulfonyl)benzamide]	0.966	823

Now from value to compound, other results behind:

EC50 (RS4;11 cells) [nM]	SMILES	EC50 (Molt-4 cells) [nM]
3.61	CC1(C)CC(c2ccc(Cl)cc2)=C2CN3CCN(c4ccc(C(=O)NS(=O)(=O)c5ccc(NC[C@H]6C[C@@](O)(CF)C6)c([N+](=O)[O-])c5)c(N5CCCOc6nc7[nH]ccc7cc65)c4)C[C@H]3COCCCO[C@@H]2C1 [Example 8, 4-((4aS,10aR)-14-(4-chlorophenyl)-12,12-dimethyl-1,2,4a,5,8,9,10a,11,13,15-decahydro-7H,12H-benzo[f]pyrazino[2,1-c][1,8]dioxa[4]azacycloundecin-3(4H)-yl)-2-(3,4-dihydro-2H-pyrrolo[3′,2′:5,6]pyrido[2,3-b][1,4]oxazepin-1(7H)-yl)-N-((4-((((1r,3r)-3-(fluoromethyl)-3-hydroxycyclobutyl)methyl)amino)-3-nitrophenyl)sulfonyl)benzamide]	7480
7.96	CC1(C)CC(c2ccc(Cl)cc2)=C2CN3CCN(c4ccc(C(=O)NS(=O)(=O)c5ccc(OCC6(F)CCN(C7COC7)CC6)c(Cl)c5)c(N5CCCOc6nc7[nH]ccc7cc65)c4)C[C@H]3COCCCO[C@@H]2C1 [Example 9, N-(3-chloro-4-{[4-fluoro-1-(oxetan-3-yl)piperidin-4-yl]methoxy}benzene-1-sulfonyl)-4-[(4aS,10aR)-14-(4-chlorophenyl)-12,12-dimethyl-1,2,4a,5,8,9,11,12,13,15-decahydro-7H,10aH-pyrazino[2,1-g][1,5,8]benzodioxazacycloundecin-3(4H)-yl]-2-(3,4-dihydro-2H-pyrrolo[3′,2′:5,6]pyrido[2,3-b][1,4]oxazepin-1(7H)-yl)benzamide]	5590
3.73	CC1(C)CC(c2ccc(Cl)cc2)=C2CN3CCN(c4ccc(C(=O)NS(=O)(=O)c5cnc(OC[C@]6(F)CC[C@@H](N7CCOCC7)CC6)c(Cl)c5)c(N5CCCOc6nc7[nH]ccc7cc65)c4)C[C@H]3COCCCO[C@@H]2C1 [Example 10, N-((5-chloro-6-(((1s,4s)-1-fluoro-4-morpholinocyclohexyl)methoxy)pyridin-3-yl)sulfonyl)-4-((4aS,10aR)-14-(4-chlorophenyl)-12,12-dimethyl-1,2,4a,5,8,9,10a,11,13,15-decahydro-7H,12H-benzo[f]pyrazino[2,1-c][1,8]dioxa[4]azacycloundecin-3(4H)-yl)-2-(3,4-dihydro-2H-pyrrolo[3′,2′:5,6]pyrido[2,3-b][1,4]oxazepin-1(7H)-yl)benzamide]	1560
19	CC1(C)CC(c2ccc(Cl)cc2)=C2CN3CCN(c4ccc(C(=O)NS(=O)(=O)c5cnc(OC[C@]6(F)CC[C@H](N7CCOCC7)CC6)c(Cl)c5)c(N5CCCOc6nc7[nH]ccc7cc65)c4)C[C@H]3COCCCO[C@@H]2C1 [Example 11, N-((5-chloro-6-(((1r,4r)-1-fluoro-4-morpholinocyclohexyl)methoxy)pyridin-3-yl)sulfonyl)-4-((4aS,10aR)-14-(4-chlorophenyl)-12,12-dimethyl-1,2,4a,5,8,9,10a, 11,13,15-decahydro-7H,12H-benzo[f]pyrazino[2,1-c][1,8]dioxa[4]azacycloundecin-3(4H)-yl)-2-(3,4-dihydro-2H-pyrrolo[3′,2′:5,6]pyrido[2,3-b][1,4]oxazepin-1(7H)-yl)benzamide]	3710
